Measured values reported in patent US6455540B1, “Methods of use of quinolone compounds against anaerobic pathogenic bacteria” (priority 1999, dated 2002).
≈ marks a conversion by molar mass, not a printed value.

What was measured:
Experiment in all cases: Agar dilution MIC
[1] = tested on: Bacteroides ureolyticus; assay type: cell-based; conditions: Campylobacter ureolyticus, 17 isolates
[2] = tested on: Porphyromonas macaccae; assay type: cell-based; conditions: 13 isolates
[3] = tested on: Actinomyces odontolyticus; assay type: cell-based; conditions: 10 isolates
[4] = tested on: Porphyromonas gingivalis; assay type: cell-based; conditions: 13 isolates
[5] = tested on: Peptostreptococcus asaccharolyticus; assay type: cell-based; conditions: 11 isolates
[6] = tested on: Veillonella spp.; assay type: cell-based; conditions: Veillonella, 24 isolates
[7] = tested on: Peptostreptococcus prevotii; assay type: cell-based; conditions: 9 isolates
[8] = tested on: Clostridium clostridioforme; assay type: cell-based; conditions: 11 isolates
[9] = tested on: Fusobacterium spp. group 2; assay type: cell-based, Fusobacterium mortiferum, necrogenes, ulcerans; conditions: Fusobacterium, 12 isolates
[10] = tested on: Anaerobiospirillum thomasii; assay type: cell-based; conditions: 13 isolates
[11] = tested on: Fusobacterium russii; assay type: cell-based
[12] = tested on: Peptostreptococcus micros; assay type: cell-based; conditions: 12 isolates
[13] = tested on: Porphyromonas spp.; assay type: cell-based, Porphyromonas cangingivalis, cansulci, circumdentaria, levii; conditions: 11 isolates
[14] = tested on: Bilophila wadsworthia; assay type: cell-based; conditions: Bilophila wadsworthia, 16 isolates, agar supplemented with pyruvate
[15] = tested on: Clostridium ramosum; assay type: cell-based; conditions: 10 isolates
[16] = tested on: Bacteroides tectum; assay type: cell-based; conditions: 22 isolates
[17] = tested on: Prevotella heparinolytica; assay type: cell-based; conditions: 16 isolates
[18] = tested on: Prevotella melaninogenica; assay type: cell-based; conditions: 12 isolates
[19] = tested on: Fusobacterium varium; assay type: cell-based; conditions: Fusobacterium varium, 17 isolates
[20] = tested on: Prevotella buccae-oris group; assay type: cell-based; conditions: 22 isolates
[21] = tested on: Peptostreptococcus magnus; assay type: cell-based; conditions: 13 isolates
[22] = tested on: Prevotella denticola/loeschii group; assay type: cell-based; conditions: 6 isolates
[23] = tested on: Clostridium inocuum; assay type: cell-based, Clostridium innocuum; conditions: Clostridium, 11 isolates
[24] = tested on: Fusobacterium spp group 1; assay type: cell-based; conditions: 19 isolates
[25] = tested on: Actinomyces israelii; assay type: cell-based; conditions: 6 isolates
[26] = tested on: Prevotella bivia; assay type: cell-based; conditions: 21 isolates
[27] = tested on: Prevotella intermedia; assay type: cell-based; conditions: 11 isolates
[28] = tested on: Porphyromonas asaccharolyticus; assay type: cell-based, Porphyromonas asaccharolytica; conditions: 11 isolates
[29] = tested on: Anaerobiospirillum succiniciproducens; assay type: cell-based; conditions: 3 isolates
[30] = tested on: Bacteroides gracilis; assay type: cell-based, Bacteroides gracilis (Campylobacter gracilis); conditions: Campylobacter gracilis, 11 isolates
[31] = tested on: Porphyromonas canoris; assay type: cell-based; conditions: 10 isolates
[32] = read-out: Minimal Inhibitory Concentration 90% (MIC90)
[33] = read-out: Minimal Inhibitory Concentration 50% (MIC50)
[34] = Porphyromonas, read-out: Minimal Inhibitory Concentration 50% (MIC50)
[35] = Porphyromonas, read-out: Minimal Inhibitory Concentration 90% (MIC90)

MIC90 [1, 32]: 4 µg/mL (≈ 9.61 µM)
MIC50 [1, 33]: 0.06 µg/mL (≈ 0.144 µM)
MIC50 [2, 34]: 0.06 µg/mL (≈ 0.144 µM)
MIC90 [2, 35]: 0.125 µg/mL (≈ 0.3 µM)
MIC90 ([3]; Schaalia odontolytica, read-out: Minimal Inhibitory Concentration 90% (MIC90)): 4 µg/mL (≈ 9.61 µM)
MIC50 ([3]; Schaalia odontolytica, read-out: Minimal Inhibitory Concentration 50% (MIC50)): 4 µg/mL (≈ 9.61 µM)
MIC50 ([4]; Porphyromonas gingivalis, read-out: Minimal Inhibitory Concentration 50% (MIC50)): 0.06 µg/mL (≈ 0.144 µM)
MIC90 ([4]; Porphyromonas gingivalis, read-out: Minimal Inhibitory Concentration 90% (MIC90)): 0.06 µg/mL (≈ 0.144 µM)
MIC50 ([5]; Peptoniphilus asaccharolyticus, read-out: Minimal Inhibitory Concentration 50% (MIC50)): 1 µg/mL (≈ 2.4 µM)
MIC90 ([5]; Peptoniphilus asaccharolyticus, read-out: Minimal Inhibitory Concentration 90% (MIC90)): 1 µg/mL (≈ 2.4 µM)
MIC90 [6, 32]: > 8 µg/mL
MIC50 [6, 33]: 0.25 µg/mL (≈ 0.6 µM)
MIC50 ([7]; Anaerococcus prevotii, read-out: Minimal Inhibitory Concentration 50% (MIC50)): 0.25 µg/mL (≈ 0.6 µM)
MIC90 ([8]; Clostridium, read-out: Minimal Inhibitory Concentration 90% (MIC90)): 4 µg/mL (≈ 9.61 µM)
MIC50 ([8]; Clostridium, read-out: Minimal Inhibitory Concentration 50% (MIC50)): 4 µg/mL (≈ 9.61 µM)
MIC50 ([10]; Anaerobiospirillum thomasii, read-out: Minimal Inhibitory Concentration 50% (MIC50)): 0.125 µg/mL (≈ 0.3 µM)
MIC90 ([10]; Anaerobiospirillum thomasii, read-out: Minimal Inhibitory Concentration 90% (MIC90)): 0.25 µg/mL (≈ 0.6 µM)
MIC50 ([11]; Fusobacterium russii, read-out: Minimal Inhibitory Concentration 50% (MIC50)): 4 µg/mL (≈ 9.61 µM)
MIC90 ([11]; Fusobacterium russii, read-out: Minimal Inhibitory Concentration 90% (MIC90)): 4 µg/mL (≈ 9.61 µM)
MIC50 ([12]; Parvimonas micra, read-out: Minimal Inhibitory Concentration 50% (MIC50)): 0.06 µg/mL (≈ 0.144 µM)
MIC90 ([12]; Parvimonas micra, read-out: Minimal Inhibitory Concentration 90% (MIC90)): 0.06 µg/mL (≈ 0.144 µM)
MIC50 [13, 34]: 0.25 µg/mL (≈ 0.6 µM)
MIC90 [13, 35]: 1 µg/mL (≈ 2.4 µM)
MIC90 [14, 32]: > 8 µg/mL
MIC50 [14, 33]: 0.5 µg/mL (≈ 1.2 µM)
MIC50 ([15]; Thomasclavelia ramosa, read-out: Minimal Inhibitory Concentration 50% (MIC50)): 0.5 µg/mL (≈ 1.2 µM)
MIC90 ([15]; Thomasclavelia ramosa, read-out: Minimal Inhibitory Concentration 90% (MIC90)): 2 µg/mL (≈ 4.8 µM)
MIC90 ([16]; Bacteroides pyogenes, read-out: Minimal Inhibitory Concentration 90% (MIC90)): 0.125 µg/mL (≈ 0.3 µM)
MIC50 ([16]; Bacteroides pyogenes, read-out: Minimal Inhibitory Concentration 50% (MIC50)): 0.06 µg/mL (≈ 0.144 µM)
MIC90 ([17]; Prevotella heparinolytica, read-out: Minimal Inhibitory Concentration 90% (MIC90)): 0.25 µg/mL (≈ 0.6 µM)
MIC50 ([17]; Prevotella heparinolytica, read-out: Minimal Inhibitory Concentration 50% (MIC50)): 0.125 µg/mL (≈ 0.3 µM)
MIC90 ([18]; Prevotella melaninogenica, read-out: Minimal Inhibitory Concentration 90% (MIC90)): 4 µg/mL (≈ 9.61 µM)
MIC50 ([18]; Prevotella melaninogenica, read-out: Minimal Inhibitory Concentration 50% (MIC50)): 1 µg/mL (≈ 2.4 µM)
MIC50 [19, 33]: 4 µg/mL (≈ 9.61 µM)
MIC90 [19, 32]: > 8 µg/mL
MIC90 ([20]; Prevotella, read-out: Minimal Inhibitory Concentration 90% (MIC90)): 2 µg/mL (≈ 4.8 µM)
MIC50 ([20]; Prevotella, read-out: Minimal Inhibitory Concentration 50% (MIC50)): 1 µg/mL (≈ 2.4 µM)
MIC50 ([21]; Finegoldia magna, read-out: Minimal Inhibitory Concentration 50% (MIC50)): 0.125 µg/mL (≈ 0.3 µM)
MIC90 ([21]; Finegoldia magna, read-out: Minimal Inhibitory Concentration 90% (MIC90)): 0.25 µg/mL (≈ 0.6 µM)
MIC90 [23, 32]: 8 µg/mL (≈ 19.2 µM)
MIC50 [23, 33]: 0.5 µg/mL (≈ 1.2 µM)
MIC50 ([24]; Fusobacterium, GROUP1, read-out: Minimal Inhibitory Concentration 50% (MIC50)): 0.5 µg/mL (≈ 1.2 µM)
MIC90 ([24]; Fusobacterium, GROUP1, read-out: Minimal Inhibitory Concentration 90% (MIC90)): 4 µg/mL (≈ 9.61 µM)
MIC50 ([25]; Actinomyces israelii, read-out: Minimal Inhibitory Concentration 50% (MIC50)): 1 µg/mL (≈ 2.4 µM)
MIC90 ([26]; Prevotella bivia, read-out: Minimal Inhibitory Concentration 90% (MIC90)): 2 µg/mL (≈ 4.8 µM)
MIC50 ([26]; Prevotella bivia, read-out: Minimal Inhibitory Concentration 50% (MIC50)): 2 µg/mL (≈ 4.8 µM)
MIC90 ([27]; Prevotella intermedia, read-out: Minimal Inhibitory Concentration 90% (MIC90)): 1 µg/mL (≈ 2.4 µM)
MIC50 ([27]; Prevotella intermedia, read-out: Minimal Inhibitory Concentration 50% (MIC50)): 0.5 µg/mL (≈ 1.2 µM)
MIC50 [28, 34]: 0.25 µg/mL (≈ 0.6 µM)
MIC90 [28, 35]: 0.25 µg/mL (≈ 0.6 µM)
MIC50 ([29]; Anaerobiospirillum succiniciproducens, read-out: Minimal Inhibitory Concentration 50% (MIC50)): 1 µg/mL (≈ 2.4 µM)
MIC90 [30, 32]: 0.5 µg/mL (≈ 1.2 µM)
MIC50 [30, 33]: 0.03 µg/mL (≈ 0.0721 µM)
MIC50 ([31]; Porphyromonas canoris, read-out: Minimal Inhibitory Concentration 50% (MIC50)): 0.25 µg/mL (≈ 0.6 µM)
MIC90 ([31]; Porphyromonas canoris, read-out: Minimal Inhibitory Concentration 90% (MIC90)): 0.5 µg/mL (≈ 1.2 µM)
Structure (SMILES): N[C@@H]1[C@H]2CN(c3nc4c(cc3F)c(=O)c(C(=O)O)cn4-c3ccc(F)cc3F)C[C@@H]12 [Trovafloxacin]
Minimal Inhibitory Concentration Range [2]: 0.03 to 0.125 µg/mL
Minimal Inhibitory Concentration Range [3]: 2 to 4 µg/mL
Minimal Inhibitory Concentration Range [4]: 0.03 to 0.06 µg/mL
Minimal Inhibitory Concentration Range [5]: 0.5 to 2 µg/mL
Minimal Inhibitory Concentration Range [7]: 0.25 to 1 µg/mL
Minimal Inhibitory Concentration Range [8]: 1 to 8 µg/mL
MIC50 [9, 33]: 4 µg/mL (≈ 9.61 µM)
MIC90 [9, 32]: 4 µg/mL (≈ 9.61 µM)
Minimal Inhibitory Concentration Range [10]: 0.06 to 0.5 µg/mL
Minimal Inhibitory Concentration Range [11]: 0.5 to 4 µg/mL
Minimal Inhibitory Concentration Range [12]: 0.03 to 0.125 µg/mL
Minimal Inhibitory Concentration Range [13]: 0.06 to 1 µg/mL
Minimal Inhibitory Concentration Range [15]: 0.25 to 8 µg/mL
Minimal Inhibitory Concentration Range [16]: 0.03 to 0.125 µg/mL
Minimal Inhibitory Concentration Range [17]: 0.125 to 0.25 µg/mL
Minimal Inhibitory Concentration Range [18]: 0.06 to 8 µg/mL
Minimal Inhibitory Concentration Range [20]: 0.25 to 4 µg/mL
Minimal Inhibitory Concentration Range [21]: 0.06 to 0.25 µg/mL
Minimal Inhibitory Concentration Range [22]: 0.06 to 4 µg/mL
MIC50 ([22]; Prevotella denticola, read-out: Minimal Inhibitory Concentration 50% (MIC50)): 1 µg/mL (≈ 2.4 µM)
Minimal Inhibitory Concentration Range [24]: 0.25 to 4 µg/mL
Minimal Inhibitory Concentration Range [25]: 0.5 to 2 µg/mL
Minimal Inhibitory Concentration Range [26]: 1 to 4 µg/mL
Minimal Inhibitory Concentration Range [27]: 0.06 to 1 µg/mL
Minimal Inhibitory Concentration Range [28]: 0.03 to 0.25 µg/mL
Minimal Inhibitory Concentration Range [29]: 0.5 to 2 µg/mL
Minimal Inhibitory Concentration Range [31]: 0.06 to 0.5 µg/mL
